Test results: patent publication US20260125375A1 (Pfizer Inc., priority 2022, published 2026)
Where two headings read alike, the source gives them in different places.

Tests used:
CBL-B = target: T1, CBL-B (Homo sapiens, UniProt Q13191); assay: Jurkat HiBit-IL2 assay (c-CBL KO), reporter cell line expressing CBL-B only; format: cell-based; conditions: geometric mean, read-out: C-CBL KO EC50 (nM) GMean
T1 construct: endogenous in cells; host or cells: Jurkat HiBit-IL2 reporter cells, C-CBL knocked out by CRISPR
Method in brief: (§1)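 IL-2 secretion was measured by HiBiT luminescence after 1 h compound exposure (0.1% DMSO) and 4 h TCR/CD28 stimulation (final anti-CD3 1 μg/ml, anti-CD28 2 μg/ml, 37 °C) of Jurkat reporters lacking c-CBL or CBL-B. EC50 came from fold-of-effect versus stimulated-only cells, as geometric means across tests.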

CBL-B (residues 36-427) = target: T2, CBL-B (residues 36-427) (Homo sapiens, UniProt Q13191); assay: Ligand Displacement Assay (LDA), HTRF competitive binding against BODIPY-labeled fluorescent tracer, CBL-B; conditions: geometric mean of the number of tests, read-out: CBL-B Ki (nM) GMean
T2 construct: Purified CBL-B (residues 36-427) and C-CBL (residues 46-435) proteins from baculovirus-infected insect cells; made in house; host or cells: baculovirus-infected insect cells
Method in brief: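 Competition with a BODIPY fluorescent tracer was read by HTRF, each protein carrying an N-terminal biotinylated AviTag bound to Tb-streptavidin. Tracer KD values were set beforehand per protein; Ki derives from duplicate three-fold compound series ([…], 2% DMSO), averaged geometrically across tests.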

C-CBL = target: T3, C-CBL (Homo sapiens, UniProt P22681); assay: Jurkat HiBit-IL2 assay (CBL-B KO), reporter cell line expressing C-CBL only; format: cell-based; conditions: geometric mean, read-out: CBL-B KO EC50 (nM) GMean
T3 construct: endogenous in cells; host or cells: Jurkat HiBit-IL2 reporter cells, CBL-B knocked out by CRISPR
Method in brief: as §1

[1] = c-CBL KO (CBL-B only), anti-CD3/anti-CD28 stimulation 4 hours, Table 16a
[2] = CBL-B KO (C-CBL only), anti-CD3/anti-CD28 stimulation 4 hours, Table 16a
[3] = C-CBL KO (expressing CBL-B only), Table 16b (further repetition)
[4] = CBL-B KO (expressing C-CBL only), Table 16b (further repetition)

Structure (SMILES) | EC50 (CBL-B; [1]) [nM] | Ki (CBL-B (residues 36-427)) [nM] | EC50 (C-CBL; [2]) [nM] | EC50 (CBL-B; [3]) [nM] | EC50 (C-CBL; [4]) [nM]
C[C@@H]1CCCN(Cc2nc(C(F)(F)F)cc3c(-c4cccc(C5(Cc6nncn6C)COC5)c4)n[nH]c23)C1 [Example C29, 7-{[(3R)-3-methylpiperidin-1-yl]methyl}-3-(3-{3-[(4-methyl-4H-1,2,4-triazol-3-yl)methyl]oxetan-3-yl}phenyl)-5-(trifluoromethyl)-1H-pyrazolo[3,4-c]pyridine] | 204 | 8.5 | 1320 |  | 
CC(c1nc(C(F)(F)F)cc2c(-c3cccc(C4(Cc5nncn5C)COC4)c3)n[nH]c12)N1CCOCC1 (single isomer, unassigned) [Example C23, 3-(3-{3-[(4-methyl-4H-1,2,4-triazol-3-yl)methyl]oxetan-3-yl}phenyl)-7-[(1ξ)-1-(morpholin-4-yl)ethyl]-5-(trifluoromethyl)-1H-pyrazolo[3,4-c]pyridine] | 152 | 5.7 | 800 |  | 
Cn1cnnc1[C@@H](c1cccc(-c2n[nH]c3c(CN[C@H]4CCC(F)(F)C4)nc(C(F)(F)F)cc23)c1)C1CCC1 (single isomer, unassigned) [Example G1] | 70 | 11 | 775 |  | 
C[C@H](N[C@@H]1CCOC1)c1nc(C(F)(F)F)cc2c(-c3cccc([C@H](c4nncn4C)C4CCC4)c3)n[nH]c12 (single isomer, unassigned) [Example D2] | 42 | 5.8 | 465 | 83 | 425
C[C@H](N[C@H]1CCC(F)(F)C1)c1nc(C(F)(F)F)cc2c(-c3cccc([C@H](c4nncn4C)C4CCC4)c3)n[nH]c12 [Example C8] | 6 | 1.1 | 44 |  | 
CC(C)NC(C)c1nc(C(F)(F)F)cc2c(-c3cccc([C@H](c4nncn4C)C4CCC4)c3)n[nH]c12 (single isomer, unassigned) [Example C35] | 15 | 3.1 | 172 |  | 
C[C@@H](NC1CCCC1)c1nc(C(F)(F)F)cc2c(-c3cccc(C4(Cc5nncn5C)COC4)c3)n[nH]c12 (single isomer, unassigned) [Example C15] | 43 | 8.9 | 229 |  | 
CCNC(C)c1nc(C(F)(F)F)cc2c(-c3cccc([C@H](c4nncn4C)C4CCC4)c3)n[nH]c12 (single isomer, unassigned) [Example C89] |  | 8 |  | 85 | 471
C[C@@H](N[C@H]1CCOC1)c1nc(C(F)(F)F)cc2c(-c3cccc([C@H](c4nncn4C)C4CCC4)c3)n[nH]c12 (single isomer, unassigned) [Example C3] | > 159 | 7.8 | 639 |  | 
C[C@@H](N[C@H]1C[C@H](O)C1)c1nc(C(F)(F)F)cc2c(-c3cccc([C@H](c4nncn4C)C4CCC4)c3)n[nH]c12 (single isomer, unassigned) [Example C92] |  | 4.4 |  | 113 | 525
Cn1cnnc1[C@@H](c1cccc(-c2n[nH]c3c(CNC4CCCC4)nc(C(F)(F)F)cc23)c1)C1CCC1 [Example D4] | 72 | 5.1 | 479 |  | 
C[C@@H]1CCCN([C@@H](C)c2nc(C(F)(F)F)cc3c(-c4cccc(C5(Cc6nncn6C)COC5)c4)n[nH]c23)C1 (single isomer, unassigned) [Example D13] | 149 | 15 | 539 |  | 
C[C@@H](c1nc(C(F)(F)F)cc2c(-c3cccc(C4(Cc5nncn5C)COC4)c3)n[nH]c12)N1CC[C@@H](F)C1 (single isomer, unassigned) [Example D9] | 627 | 17.4 | 1770 |  | 
CC(c1nc(C(F)(F)F)cc2c(-c3cccc(C4(Cc5nncn5C)COC4)c3)n[nH]c12)N1C[C@@H](F)[C@H](F)C1 (single isomer, unassigned) [Example C25] | 49 | 6.5 | 252 |  | 
C[C@H](N[C@@H]1CC[C@@H]1O)c1nc(C(F)(F)F)cc2c(-c3cccc([C@H](c4nncn4C)C4CCC4)c3)n[nH]c12 (single isomer, unassigned) [Example D28] | 1 | 0.7 | 4 |  | 
C[C@@H](c1nc(C(F)(F)F)cc2c(-c3cccc(C4(Cc5nncn5C)COC4)c3)n[nH]c12)N1C[C@H](F)[C@@H](F)C1 (single isomer, unassigned) [Example D7] | 80 | 7.4 | 380 |  | 
C[C@@H](N[C@H]1C[C@@H](O)C1)c1nc(C(F)(F)F)cc2c(-c3cccc([C@H](c4nncn4C)C4CCC4)c3)n[nH]c12 (single isomer, unassigned) [Example C37] | 173 | 5.3 | 1040 |  | 
CC(NC1CCCC1)c1nc(C(F)(F)F)cc2c(-c3cccc([C@H](c4nncn4C)C4CCC4)c3)n[nH]c12 (stereo partly drawn) [Example C14, N-{(1ξ)-1-[3-{3-[(R)-cyclobutyl(4-methyl-4H-1,2,4-triazol-3-yl)methyl]phenyl}-5-(trifluoromethyl)-1H-pyrazolo[3,4-c]cyclopen-7-yl]ethyl}cyclopentanamine] | 4 | 0.4 | 26 | 5 | 17
C[C@H]1CN(Cc2nc(C(F)(F)F)cc3c(-c4cccc([C@H](c5nncn5C)C5CCC5)c4)n[nH]c23)CCO1 [Example C6, 3-{3-[(R)-cyclobutyl(4-methyl-4H-1,2,4-triazol-3-yl)methyl]phenyl}-7-{[(2S)-2-methylmorpholin-4-yl]methyl}-5-(trifluoromethyl)-1H-pyrazolo[3,4-c]pyridine] | 115 | 25.8 | 807 |  | 
C[C@H](N[C@H]1CCOC1)c1nc(C(F)(F)F)cc2c(-c3cccc([C@H](c4nncn4C)C4CCC4)c3)n[nH]c12 (single isomer, unassigned) [Example C2] | 54 | 3.9 | 641 |  | 
C[C@H](N[C@H]1C[C@@H](F)C1)c1nc(C(F)(F)F)cc2c(-c3cccc([C@H](c4nncn4C)C4CCC4)c3)n[nH]c12 (single isomer, unassigned) [Example C95] |  | 4.7 |  | 53 | 230
C[C@H](NC1CCC1)c1nc(C(F)(F)F)cc2c(-c3cccc(C4(Cc5nncn5C)COC4)c3)n[nH]c12 [Example F1, N-{(1S)-1-[3-(3-{3-[(4-methyl-4H-1,2,4-triazol-3-yl)methyl]oxetan-3-yl}phenyl)-5-(trifluoromethyl)-1H-pyrazolo[3,4-c]pyridin-7-yl]ethyl}cyclobutanamine] | 8 | 1.3 | 60 | 15 | 56
C[C@@H](N[C@@H]1CCC(F)(F)C1)c1nc(C(F)(F)F)cc2c(-c3cccc(C4(Cc5nncn5C)COC4)c3)n[nH]c12 (single isomer, unassigned) [Example C18] | 17 | 2.2 | 178 | 19 | 49
C[C@@H](c1nc(C(F)(F)F)cc2c(-c3cccc(C4(Cc5nncn5C)COC4)c3)n[nH]c12)N1CCC(F)(F)C1 (single isomer, unassigned) [Example D5] | 650 | 32.7 | 1380 |  | 
C[C@H](N[C@H]1C[C@@H](O)C1)c1nc(C(F)(F)F)cc2c(-c3cccc([C@H](c4nncn4C)C4CCC4)c3)n[nH]c12 (single isomer, unassigned) [Example C36] | 20 | 1.8 | 173 | 35 | 160
CC(c1nc(C(F)(F)F)cc2c(-c3cccc(C4(Cc5nncn5C)COC4)c3)n[nH]c12)N1CCOCC1 (single isomer, unassigned) [Example C24, 3-(3-{3-[(4-methyl-4H-1,2,4-triazol-3-yl)methyl]oxetan-3-yl}phenyl)-7-[(1ξ)-1-(morpholin-4-yl)ethyl]-5-(trifluoromethyl)-1H-pyrazolo[3,4-c]pyridine] | 434 | 28.3 | 2970 |  | 
C[C@H]1CN([C@@H](C)c2nc(C(F)(F)F)cc3c(-c4cccc(C5(Cc6nncn6C)COC5)c4)n[nH]c23)CCO1 (single isomer, unassigned) [Example D11] | 143 | 7.4 | 512 |  | 
C[C@H](O)CN[C@@H](C)c1nc(C(F)(F)F)cc2c(-c3cccc([C@H](c4nncn4C)C4CCC4)c3)n[nH]c12 (single isomer, unassigned) [Example D19] | 9 | 1 | 132 | 24 | 157
